Experimental data reported in ChEMBL document CHEMBL3886696, “Compounds and methods for treating ocular diseases” (2016).

Tests used:
[1] = target: T1, Prostaglandin E2 receptor EP2 subtype (Homo sapiens, UniProt P43116); experiment: (§1) Radioligand Binding: HEK-293 cells stably expressing the human or feline FP receptor, or EP1, EP2, or EP4 receptors were washed with TME buffer, scraped from the bottom of the flasks, and homogenized for 30 sec using a Brinkman PT 10/35 polytron. TME buffer was added to achieve a final 40 ml volume in the centrifuge tubes (the composition of TME is 100 mM TRIS base, 20 mM MgCl2, […]; 10N HCl is added to achieve a pH of 7.4). The cell homogenate was centrifuged at 19000 r.p.m. for 20 min at 4 °C. using a Beckman Ti-60 rotor. The resultant pellet was resuspended in TME buffer to give a final 1 mg/ml protein concentration, as determined by Biorad assay. Radioligand binding competition assays vs. [3H-]17-phenyl PGF2a (5 nM) were performed in a 100 μl volume for 60 min. Binding reactions were started by adding plasma membrane fraction. The reaction was terminated by the addition of 4 ml ice-cold TRIS-HCl buffer and rapid filtration through glass fiber GF/B filters using a Brandel cell harvester. The filters were washed 3 times with ice-cold buffer and oven dried for one hour. [3H−] PGE2 (specific activity 180 Ci mmol) was used as the radioligand for EP receptors. [3H] 17-phenyl PGF2a was employed for FP receptor binding studies. Binding studies employing EP1, EP2, EP4 and FP receptors were performed in duplicate in at least three separate experiments. A 200 μl assay volume was used. […]; format: cell-free
[2] = target: T2, Prostaglandin E2 receptor EP4 subtype (Homo sapiens, UniProt P35408); experiment: as §1; format: cell-free
[3] = target: T1, Prostaglandin E2 receptor EP2 subtype; experiment: (§2) cAMP Assay: EP4 receptors couple to Gs and mediate elevations in cAMP concentration, although they do participate in other pathways as well. There are some redundancies in function between EP2 and EP4 receptors. For example, both receptors induce PGE2-mediated RANKL through cAMP.; format: functional
[4] = target: T2, Prostaglandin E2 receptor EP4 subtype; experiment: as §2; format: functional

T1 sequence (P43116 whole entry): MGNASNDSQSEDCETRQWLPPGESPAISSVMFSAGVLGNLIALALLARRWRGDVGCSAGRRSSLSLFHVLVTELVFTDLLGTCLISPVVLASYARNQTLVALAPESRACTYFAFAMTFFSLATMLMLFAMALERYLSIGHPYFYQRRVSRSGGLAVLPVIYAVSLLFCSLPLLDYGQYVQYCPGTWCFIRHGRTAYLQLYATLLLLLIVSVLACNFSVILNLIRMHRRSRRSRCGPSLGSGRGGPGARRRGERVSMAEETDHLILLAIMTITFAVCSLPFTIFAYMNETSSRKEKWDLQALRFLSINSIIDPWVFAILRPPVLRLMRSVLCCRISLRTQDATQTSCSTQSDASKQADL
T2 sequence (P35408 whole entry): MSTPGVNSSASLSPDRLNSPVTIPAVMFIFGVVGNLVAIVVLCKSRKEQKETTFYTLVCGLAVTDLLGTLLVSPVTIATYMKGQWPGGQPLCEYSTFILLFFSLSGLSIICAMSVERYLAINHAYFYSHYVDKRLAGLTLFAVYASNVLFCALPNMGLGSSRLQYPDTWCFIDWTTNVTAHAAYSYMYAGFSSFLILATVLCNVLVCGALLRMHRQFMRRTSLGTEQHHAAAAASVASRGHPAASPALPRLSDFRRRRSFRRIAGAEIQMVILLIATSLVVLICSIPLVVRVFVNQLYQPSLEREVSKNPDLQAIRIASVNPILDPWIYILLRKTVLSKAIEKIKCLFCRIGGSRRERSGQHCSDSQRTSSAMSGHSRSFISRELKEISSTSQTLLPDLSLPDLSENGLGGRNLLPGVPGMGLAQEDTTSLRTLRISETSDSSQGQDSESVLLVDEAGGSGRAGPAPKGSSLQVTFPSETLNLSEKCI

EC50 [1]: 96 nM | EC50 [2]: 53 nM | EC50 [3]: 38 nM | EC50 [4]: 1 nM
SMILES: O=C(O)c1ccc(CCCN2[C@@H](/C=C/C(O)Cc3cccc(OC(F)(F)F)c3)CCS2(=O)=O)s1 (some centres undefined)
